“And” between values parts separate entries of the source, which are not always exact repeats. Equal entries are not always repeated. Where two headings read alike, the source gives them in different places.
Columns and labels:
[1] = biological target: CDK12–cyclin K (Homo sapiens, UniProt Q9NYV4); test: Lanthascreen kinase binding assay, CDK12; conditions: for Lanthascreen raw signal, sheet CDK12: series r37, duplicates
Method: (§1) Lanthascreen experiments were performed using commercially available reagents (Thermo Fisher) and according to the manufacturer’s instructions.

[2] = biological target: T1, CDK9–cyclin T (Homo sapiens, UniProt P50750); test: Lanthascreen kinase binding assay, CDK9; conditions: for Lanthascreen TR-FRET signal (raw ratio), sheet CDK9: third titration set (r25), duplicates
T1 construct: purchased Thermo Fisher
T1 sequence (P50750 whole entry): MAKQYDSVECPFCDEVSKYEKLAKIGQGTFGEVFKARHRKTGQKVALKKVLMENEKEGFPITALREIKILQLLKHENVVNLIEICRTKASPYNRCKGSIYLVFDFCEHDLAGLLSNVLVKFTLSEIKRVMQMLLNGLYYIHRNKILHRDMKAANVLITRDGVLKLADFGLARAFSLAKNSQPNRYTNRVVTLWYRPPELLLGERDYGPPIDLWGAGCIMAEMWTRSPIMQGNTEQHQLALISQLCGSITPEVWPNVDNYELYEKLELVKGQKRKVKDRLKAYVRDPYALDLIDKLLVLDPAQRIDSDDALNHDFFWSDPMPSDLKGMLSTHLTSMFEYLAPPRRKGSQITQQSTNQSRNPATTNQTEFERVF
T1 sequence (O60563 whole entry partner): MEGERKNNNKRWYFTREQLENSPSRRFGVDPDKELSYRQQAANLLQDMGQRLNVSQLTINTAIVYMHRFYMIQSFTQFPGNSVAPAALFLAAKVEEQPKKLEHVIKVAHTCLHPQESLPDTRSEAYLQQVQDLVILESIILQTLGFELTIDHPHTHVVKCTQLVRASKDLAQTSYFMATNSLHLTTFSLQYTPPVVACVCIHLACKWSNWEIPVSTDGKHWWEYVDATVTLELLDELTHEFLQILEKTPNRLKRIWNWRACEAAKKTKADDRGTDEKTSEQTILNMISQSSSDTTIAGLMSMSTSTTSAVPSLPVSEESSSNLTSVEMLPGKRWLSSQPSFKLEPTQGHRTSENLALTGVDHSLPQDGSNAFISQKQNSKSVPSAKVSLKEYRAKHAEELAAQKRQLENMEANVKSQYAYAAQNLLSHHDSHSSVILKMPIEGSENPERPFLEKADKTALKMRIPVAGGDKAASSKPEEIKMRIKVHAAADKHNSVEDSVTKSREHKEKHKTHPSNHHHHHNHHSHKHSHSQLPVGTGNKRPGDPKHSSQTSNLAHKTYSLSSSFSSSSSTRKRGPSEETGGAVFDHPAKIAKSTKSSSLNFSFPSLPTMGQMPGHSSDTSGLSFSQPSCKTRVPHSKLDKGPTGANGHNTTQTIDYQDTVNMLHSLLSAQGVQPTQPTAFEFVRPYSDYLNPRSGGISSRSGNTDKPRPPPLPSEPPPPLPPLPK
Method: as §1

[3] = system: cyclin K–eGFP degradation reporter; test: Cyclin K reporter stability analysis (dual-color cyclin K–eGFP reporter); format: cell-based, human; conditions: source data sheet correlations; read-out: DC50
Method in brief: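 A 5 h treatment of HEK293T–Cas9 cells expressing the degradation reporter preceded flow cytometry; eGFP over mCherry, normalized to DMSO.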

[4] = biological target: T2, CDK2–cyclin A (Homo sapiens, UniProt P24941); test: Lanthascreen kinase binding assay, CDK2; conditions: for Lanthascreen signal, sheet CDK2: raw replicates, experiment r36-r46
T2 construct: purchased Thermo Fisher
Method: as §1

[5] = system: HEK293T cells; test: Drug sensitivity assay (CellTiter-Glo viability) with or without MLN4924 pretreatment; format: cell-based, human; conditions: Supplementary Table 2
Method in brief: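 HEK293T–Cas9, 0.15 × 10^6 ml^−1; pretreat DMSO vs 100 nM MLN4924; drugs dispensed after 2 h; 3 d exposure; CellTiter-Glo; viability vs DMSO control.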

[6] = biological target: T3, CDK12–cyclin K and DDB1 (Homo sapiens, UniProt Q16531+Q9NYV4, K965R); test: TR-FRET ternary complex formation assay (compound titration); format: binding
T3 construct: His6–CDK12 (a.a. 713–1,052); full-length or beta-propeller B domain deletion (ΔBPB: a.a. 396–705 deleted) constructs of His6–DDB1ΔBPB, StrepII–Avi–DDB1, or His6–Spy–DDB1; made in house; host or cells: Trichoplusia ni High Five insect cells (baculovirus)
T3 sequence (Q9NYV4 713-1052 K965R): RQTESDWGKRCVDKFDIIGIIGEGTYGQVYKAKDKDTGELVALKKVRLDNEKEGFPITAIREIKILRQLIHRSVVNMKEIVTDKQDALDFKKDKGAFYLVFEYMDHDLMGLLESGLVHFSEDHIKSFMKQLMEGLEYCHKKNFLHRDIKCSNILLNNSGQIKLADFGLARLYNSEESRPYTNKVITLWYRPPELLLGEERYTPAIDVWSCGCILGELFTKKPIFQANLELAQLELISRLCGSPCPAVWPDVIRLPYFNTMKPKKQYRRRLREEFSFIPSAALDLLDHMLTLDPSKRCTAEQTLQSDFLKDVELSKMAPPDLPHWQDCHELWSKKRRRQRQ
T3 sequence (O75909 1-267 partner): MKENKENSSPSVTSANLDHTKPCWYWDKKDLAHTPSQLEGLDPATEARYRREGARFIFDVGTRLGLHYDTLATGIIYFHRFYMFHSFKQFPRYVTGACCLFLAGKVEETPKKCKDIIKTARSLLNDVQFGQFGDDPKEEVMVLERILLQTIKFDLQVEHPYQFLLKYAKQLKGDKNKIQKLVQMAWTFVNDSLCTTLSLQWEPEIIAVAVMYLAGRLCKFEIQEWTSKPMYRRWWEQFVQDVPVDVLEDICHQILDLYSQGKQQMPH
T3 sequence (Q16531 whole entry): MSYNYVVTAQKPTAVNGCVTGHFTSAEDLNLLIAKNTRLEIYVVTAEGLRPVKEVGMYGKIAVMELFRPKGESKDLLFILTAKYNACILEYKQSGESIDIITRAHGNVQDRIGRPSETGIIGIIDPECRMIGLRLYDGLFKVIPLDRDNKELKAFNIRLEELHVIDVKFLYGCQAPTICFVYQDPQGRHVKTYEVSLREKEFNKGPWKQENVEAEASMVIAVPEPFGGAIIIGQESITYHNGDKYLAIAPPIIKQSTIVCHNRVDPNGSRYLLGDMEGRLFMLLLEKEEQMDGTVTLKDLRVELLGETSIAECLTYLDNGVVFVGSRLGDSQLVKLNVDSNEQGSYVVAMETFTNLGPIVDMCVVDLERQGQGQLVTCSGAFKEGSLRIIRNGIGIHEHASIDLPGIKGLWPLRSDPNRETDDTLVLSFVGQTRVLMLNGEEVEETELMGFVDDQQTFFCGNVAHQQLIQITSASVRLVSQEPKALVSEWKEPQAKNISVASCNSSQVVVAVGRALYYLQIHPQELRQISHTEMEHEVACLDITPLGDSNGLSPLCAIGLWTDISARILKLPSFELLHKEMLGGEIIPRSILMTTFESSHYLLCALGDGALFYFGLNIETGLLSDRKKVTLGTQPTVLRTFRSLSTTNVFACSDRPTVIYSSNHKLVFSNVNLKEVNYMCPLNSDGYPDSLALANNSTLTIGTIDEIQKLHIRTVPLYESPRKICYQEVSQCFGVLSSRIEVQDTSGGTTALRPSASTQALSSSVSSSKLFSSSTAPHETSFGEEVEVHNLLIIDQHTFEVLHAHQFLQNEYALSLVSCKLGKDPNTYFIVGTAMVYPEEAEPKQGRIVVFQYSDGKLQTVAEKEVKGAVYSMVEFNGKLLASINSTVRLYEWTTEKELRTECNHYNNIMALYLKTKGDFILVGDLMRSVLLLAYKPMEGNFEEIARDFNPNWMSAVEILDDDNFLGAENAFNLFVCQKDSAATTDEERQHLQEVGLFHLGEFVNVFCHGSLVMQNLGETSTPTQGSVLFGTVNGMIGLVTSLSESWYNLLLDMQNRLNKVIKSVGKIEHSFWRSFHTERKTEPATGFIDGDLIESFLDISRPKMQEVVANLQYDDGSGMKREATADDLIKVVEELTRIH
Method in brief: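 Signal was the ratio of 520 nm to 490 nm fluorescence, measured after a 70 μs delay that reduced background.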

CDK12–cyclin K, sequence (Q9NYV4 713-1052): as the sequence (Q9NYV4 713-1052 K965R) above, with R253K counted along it
CDK12–cyclin K, sequence (O75909 1-267 partner limits assumed): as the sequence (O75909 1-267 partner) above

For CC[C@H](CO)Nc1nc(NCc2nc3cc(Cl)c(Cl)cc3[nH]2)c2ncn(-c3cnn(C)c3)c2n1 [DS22], which IC50 ([1]; Supplementary Table 2, read-out: Lanthascreen IC50 [nM] CDK12) is on record?
Its IC50 is 1320 nM.

And the “Lanthascreen raw signal, sheet CDK12” value ([1]; compound 0.038147 nM)?
Its value is 0.01422 and 0.01468.

And the “Lanthascreen raw signal, sheet CDK12” value ([1]; compound 0.152588 nM)?
Its value is 0.01335 and 0.01357.

And the “Lanthascreen raw signal, sheet CDK12” value ([1]; compound 0.610352 nM)?
The value was 0.01416 and 0.01634.

And the “Lanthascreen raw signal, sheet CDK12” value ([1]; compound 9.76563 nM)?
Its value is 0.01407 and 0.01436.

And the “Lanthascreen raw signal, sheet CDK12” value ([1]; compound 39.0625 nM)?
The value was 0.01347 and 0.01362.

What about the “Lanthascreen raw signal, sheet CDK12” value ([1]; compound 156.25 nM) of the same compound?
The value was 0.01258 and 0.01228.

What about the “Lanthascreen raw signal, sheet CDK12” value ([1]; compound 625 nM) of the same compound?
The value was 0.01036 and 0.01104.

What about the “Lanthascreen raw signal, sheet CDK12” value ([1]; compound 2500 nM) of the same compound?
The value was 0.007943 and 0.008192.

And the “Lanthascreen raw signal, sheet CDK12” value ([1]; compound 10000 nM)?
The value was 0.006259 and 0.005981.

What about the IC50 ([2]; Lanthascreen, average, Extended Data Fig. 8, read-out: CDK9 IC50) of the same compound?
Its IC50 is > 10000 nM.

What about the IC50 ([2]; Supplementary Table 2, read-out: Lanthascreen IC50 [nM] CDK9) of the same compound?
The IC50 was > 10000 nM.

What about the “Lanthascreen TR-FRET signal (raw ratio), sheet CDK9” value ([2]; compound 0.038147 nM) of the same compound?
Its value is 0.01967 and 0.01921.

And the “Lanthascreen TR-FRET signal (raw ratio), sheet CDK9” value ([2]; compound 0.152588 nM)?
The value was 0.02095 and 0.01844.

And the “Lanthascreen TR-FRET signal (raw ratio), sheet CDK9” value ([2]; compound 0.610352 nM)?
Its value is 0.02014 and 0.01923.

What about the “Lanthascreen TR-FRET signal (raw ratio), sheet CDK9” value ([2]; compound 9.76563 nM) of the same compound?
The value was 0.02017 and 0.01981.

What about the “Lanthascreen TR-FRET signal (raw ratio), sheet CDK9” value ([2]; compound 39.0625 nM) of the same compound?
Its value is 0.02067 and 0.01823.

And the “Lanthascreen TR-FRET signal (raw ratio), sheet CDK9” value ([2]; compound 156.25 nM)?
Its value is 0.02063 and 0.01896.

And the “Lanthascreen TR-FRET signal (raw ratio), sheet CDK9” value ([2]; compound 625 nM)?
Its value is 0.01918 and 0.01876.

And the “Lanthascreen TR-FRET signal (raw ratio), sheet CDK9” value ([2]; compound 2500 nM)?
Its value is 0.01797 and 0.01674.

And the “Lanthascreen TR-FRET signal (raw ratio), sheet CDK9” value ([2]; compound 10000 nM)?
The value was 0.01641 and 0.01561.

And the DC50 [3]?
Its DC50 is 109 nM.

What about the “Lanthascreen signal, sheet CDK2” value ([4]; Compound 0.038147 nM) of the same compound?
Its value is 0.01361 and 0.01332.

What about the “Lanthascreen signal, sheet CDK2” value ([4]; Compound 0.152588 nM) of the same compound?
Its value is 0.01367 and 0.01361.

And the “Lanthascreen signal, sheet CDK2” value ([4]; Compound 0.610352 nM)?
Its value is 0.01456 and 0.01463.

And the “Lanthascreen signal, sheet CDK2” value ([4]; Compound 9.76563 nM)?
Its value is 0.01461 and 0.01423.

And the “Lanthascreen signal, sheet CDK2” value ([4]; Compound 39.0625 nM)?
The value was 0.01375 and 0.01404.

What about the “Lanthascreen signal, sheet CDK2” value ([4]; Compound 156.25 nM) of the same compound?
The value was 0.01392 and 0.01367.

What about the “Lanthascreen signal, sheet CDK2” value ([4]; Compound 625 nM) of the same compound?
Its value is 0.01433 and 0.01409.

And the “Lanthascreen signal, sheet CDK2” value ([4]; Compound 2500 nM)?
Its value is 0.01378 and 0.01394.

What about the “Lanthascreen signal, sheet CDK2” value ([4]; Compound 10000 nM) of the same compound?
The value was 0.01296 and 0.01217.

And the IC50 ([4]; Lanthascreen, average, Extended Data Fig. 8, read-out: CDK2 IC50)?
The IC50 was > 10000 nM.

What about the IC50 ([4]; Supplementary Table 2, read-out: Lanthascreen IC50 [nM] CDK2) of the same compound?
The IC50 was > 10000 nM.

What about the EC50 ([5]; Homo sapiens, HEK-293T, HEK293T viability, 72 h, compound alone, read-out: Cellular assays EC50) of the same compound?
The EC50 was 935 nM.

What about the Toxicity rescue ([5]; MLN4924-mediated cytotoxicity rescue, 10 µM used where n.d.) of the same compound?
The Toxicity rescue was 66%.

What about the “TR-FRET signal at compound concentration 0.468 nM” value ([6]; compound concentration 0.468 nM, raw replicate titration data) of the same compound?
The value was 0.2612 and 0.2579 and 0.218 and 0.2096.

And the “TR-FRET signal at compound concentration 2.16 nM” value ([6]; compound concentration 2.16 nM, raw replicate titration data)?
The value was 0.3357 and 0.3419 and 0.2765 and 0.3174.

What about the “TR-FRET signal at compound concentration 3.6 nM” value ([6]; compound concentration 3.6 nM, raw replicate titration data) of the same compound?
Its value is 0.4892 and 0.5148 and 0.5183 and 0.5347.

What about the “TR-FRET signal at compound concentration 7.92001 nM” value ([6]; compound concentration 7.92001 nM, raw replicate titration data) of the same compound?
The value was 0.8316 and 0.8843 and 0.9885 and 1.068.

What about the “TR-FRET signal at compound concentration 15.84 nM” value ([6]; compound concentration 15.84 nM, raw replicate titration data) of the same compound?
The value was 1.474 and 1.574 and 1.714 and 1.959.

And the “TR-FRET signal at compound concentration 30.96 nM” value ([6]; compound concentration 30.96 nM, raw replicate titration data)?
Its value is 2.47 and 2.714 and 3.094 and 3.238.

What about the “TR-FRET signal at compound concentration 62.6401 nM” value ([6]; compound concentration 62.6401 nM, raw replicate titration data) of the same compound?
The value was 3.3967 and 3.4513 and 3.77 and 3.733.

And the “TR-FRET signal at compound concentration 125.28 nM” value ([6]; compound concentration 125.28 nM, raw replicate titration data)?
The value was 3.673 and 3.6963 and 3.89 and 3.859.

And the “TR-FRET signal at compound concentration 244.8 nM” value ([6]; compound concentration 244.8 nM, raw replicate titration data)?
The value was 3.796 and 3.869 and 3.911 and 3.923.

What about the “TR-FRET signal at compound concentration 993.601 nM” value ([6]; compound concentration 993.601 nM, raw replicate titration data) of the same compound?
The value was 3.806 and 3.925 and 3.935 and 3.945.

What about the “TR-FRET signal at compound concentration 2001.6 nM” value ([6]; compound concentration 2001.6 nM, raw replicate titration data) of the same compound?
Its value is 3.846 and 3.958 and 4 and 4.014.

And the EC50 ([6]; in vitro complex formation, 50 nM CDK12–cyclin K, 100 nM DDB1, text and figures, read-out: TR-FRET EC50)?
Its EC50 is 19 ± 1 nM.

What about the EC50 ([6]; sheet MOESM7, read-out: log TR-FRET EC50 (converted)) of the same compound?
The EC50 was 19.3 nM.

And the EC50 ([6]; source data sheet correlations, read-out: TR-FRET EC50)?
The EC50 was 19.3 nM.

Reference: paper PMC10746543, “Design principles for cyclin K molecular glue degraders” (Nature Chemical Biology, 2023)
